Results reported in patent US20170281799A1, “SYSTEMS AND METHODS FOR SCREENING OTOTOXIC, OTOPROTECTIVE, AND OTOREGENERATIVE COMPOUNDS USING AQUATIC MODELS” (ARIZONA BOARD OF REGENTS ON BEHALF OF THE UNIVERSITY OF …, priority 2014, published 2017).
Entries after “also recorded” stand apart in the source; their conditions may differ. Each block holds one compound with its values, some of them ahead of it.

Experiments:
lateral line hair cells = experiment: Anatomical assay: YO-PRO1 staining, aggregate neuromast damage score; conditions: for Anatomical Assay Damage Score (Mean ± S.D.): score 0-21 per fish
Description: Following the drug exposure (see below for detailed methods), larvae were fluorescently stained/labeled in embryo medium containing 6 μM YO-PRO1 (Invitrogen; Y3603) for 20 min. YO-PRO1 is a common vital dye used for staining viable lateral line hair cells in zebrafish (Coffin A B, et al., Zebrafish. 2010 March; 7(1):3-11; Ou H C, et al., Drug Discov Today. 2010 April; 15(7-8):265-71; Ou H C, et al., Hear Res. 2007 November; 233(1-2):46-53; Santos F, et al., Hear Res. 2006 March; 213(1-2):25-33). Concentration and duration were optimized for this purpose. After labeling, the larvae were rinsed three times in embryo media and then anesthetized using 0.5 mM of MS-222 (Tricaine Methanesulfonate, Western Chemical Inc.) (Buck L M, et al., Hear Res. 2012 February; 284(1-2):67-81). The larvae were fixed in 2% paraformaldehyde for 1 hour at room temperature and stored in PBS overnight at 4° C. Fixed larvae were then mounted in 6% methylcellulose (Sigma; M7140) in 0.2 mm silicone chambers and covered with No. 1.5 cover glass (Warner Instruments; 64-0718) for confocal microscopy. Larvae were observed under a confocal microscope (Leica SP5) using 20× dry and 40× oil immersion lenses.
Treatment groups consisted of 3-7 fish. Seven ventral neuromasts of the posterior lateral line (P3, P4, P5, P6, P7, P8, and P9) were selected for determination of the “neuromast damage score” per fish (FIG. 1). Each neuromast was scored from 0 to 3. A score of 0 represents no damage with normal staining; 1 represents mild damage with moderate staining; 2 represents severe damage with poor staining; 3 represents total hair cell/neuromast destruction with no staining (FIG. 2). Seven scores per fish were then added to generate the total “aggregate neuromast damage score.” The lowest possible score for an individual fish is 0, representing no damage, with the highest possible score for a fish being 21, representing complete damage. Separate individuals (scorer A, B and C) were trained in the counting technique and “neuromast damage scores” were generated independently with blinding of experimental conditions to insure unbiased assessment. The mean score of the three evaluators was used to determine the final “neuromast damage score.” Inter-scorer variation was validated by using the Pearson's correlation coefficient.
In order to establish the sensitivity of the newly developed behavior assay for detecting damage caused by varying doses of cisplatin, a cisplatin dose-dependent exposure experiment was prepared. Cisplatin solutions were prepared from powder (Sigma; P4394) in embryo medium. Five dpf larvae were incubated in cisplatin at concentrations of 0, 250, 500, 750, or 1000 μM (Cis 0, Cis 250, Cis 500, Cis 750, and Cis 1000, respectively) for 4 hours at room temperature or 28±0.5° C. then rinsed 3 times in embryo media.
In order to assess the effect of dexamethasone on cisplatin-induced ototoxicity using the behavior/anatomical assay technique, dexamethasone pre-exposure groups were prepared. Dexamethasone (Sigma; D4902) stock solution (25 mg/ml) was prepared with DMSO (Dimethyl Sulphoxide, Sigma; D2650) and diluted with embryo medium. Four-and-half dpf larvae were incubated in dexamethasone at a concentration of 5 μM for 12 hours at 28.5±0.5° C. and subsequently rinsed in embryo media. Four-and-half dpf fish were used to allow for a half-day of maturation to ensure all fish would be 5 dpf at time of behavioral/anatomical testing. […]

zebrafish [1] = experiment: Rheotaxis behavior with next generation video imaging and semi-automated image analysis; type: in vivo, Danio rerio
Description: Sulforaphane, a naturally occurring molecule within the isothiocyanate group of organosulfur compounds, is present within cruciferous vegetables such as broccoli. Low doses of SF induce production of antioxidant enzymes such as glutathione transferases, UDP-glucuronyltransferase, NAD(P)H:quinone oxidoreductase I and heme oxygenase-1 (HO-1) via NRF2 mediated activation of ARE promoters upstream from their genes—thereby allowing a diverse array of electrophilic and oxidative toxicants to be eliminated in a coordinated manner. Four-and-half dpf larvae were incubated in sulforaphane at a concentration of 10 μM for 12 hours and subsequently incubated for 4 hours in 1000 μM cisplatin (SF10/Cis 1000). An SF-alone (SF10/Cis 0) group and DMSO vehicle controls (DMSO/Cis 1000; DMSO/Cis 0) were also tested. To assess the otoprotective effects of SF on hair cell anatomy, aggregate neuromast damages were determined for each treatment group.

zebrafish [2] = experiment: Behavioral assay: rheotaxis in swimming test apparatus; type: in vivo, Danio rerio
Description: The custom-built behavioral apparatus consists of 6 experimental lanes with laminar flow velocity controlled at 0.15 cm/sec, allowing the simultaneous testing of up to 6 differing experimental conditions. Each lane measures 10.2 cm in height×9.9 cm in width×25.4 cm in length. Lanes are partitioned with metal mesh dividers to contain fish in one central area, measuring 5.0 cm length×9.9 cm width, allowing for image capture (FIG. 3). E2 medium flows from a header tank through the experimental lanes to a media reserve tank and is then recycled via pump back to the header tank. The pump is used to overdrive a header standpipe, resulting in constant pressure that is split evenly between the lanes, controlling the flow. A heater located in the reserve media tank maintains temperature at 28±0.5° C. Total system volume capacity (experimental apparatus+header and reserve tanks) is approximately 210 L, while operating volume is 152 L. The flow is calibrated as follows: lane width (9.9 cm)×total number of lanes (6)×operational water height (5.8 cm)×desired flow (0.15 cm/sec)=flow rate of 51.7 cubic centimeters/seconds. Water traveling from experimental lanes to the reserve media tank is received in a 1000 mL beaker and the rate of water flow is adjusted until it takes 19.3 seconds to fill the beaker to 1000 mL. Flow speed is calibrated before every experiment. With the system calibrated, flow may then be turned on or off via a separate valve, without any further adjustments.
The experimental system is housed in a cabinet creating a condition free of ambient light, thus negating any influence of visual input on zebrafish swimming behavior. Infrared light provides lighting from which images were acquired. Video capture is accomplished with under-mounted Samsung SCB-200 high-resolution video cameras (FIG. 3). In conducting the assay, five-day post fertilization (5 dpf) zebrafish are treated with several different experimental conditions (see below for detailed methods), rinsed three times in embryo medium, transferred to the experimental lanes, and the cabinet is then closed for 30 minutes to allow for dark adaptation. Image acquisition begins with 2 minutes of filming under no-flow conditions, next the water flow is turned on and the fish are allowed 1 minute to acclimate to the flow and then 2 minutes of flow behavior is recorded (FIG. 4).
Rheotaxis was defined as fish oriented headfirst, with an axial alignment within 30 degrees on either side of the directional flow vector and attempting to swim into the current. […] From the still images, the angle of every fish was measured using ImageJ and placed into an Excel spreadsheet for data processing (FIG. 6). […] Therefore, there were no negative values or angles measured between 181-360 degrees. […]

[3] = dexamethasone 5 μM 12 hours alone, no cisplatin
[4] = dexamethasone 5 μM pre-exposure 12 hours, then cisplatin 1000 μM 4 hours

SMILES: C[S+]([O-])CCCCN=C=S (centres unmarked) [sulforaphane]
hair cell damage caused by sulforaphane alone (in words) (lateral line hair cells; SF10/Cis 0: 10 μM, 12 hours): caused no hair cell damage
rescue of hair cell architecture against cisplatin (in words) (lateral line hair cells; SF10/Cis 1000: 10 μM 12 hours, then 1000 μM cisplatin 4 hours): partial rescue of hair cell architecture
effect of pre-exposure on rheotaxis after cisplatin (in words) (zebrafish [1]; SF10/Cis 1000): dramatically improved the ability of fish to perform rheotaxis

SMILES: N.N.[Cl][Pt][Cl] [Cis, cisplatin]
rheotaxis performance versus cisplatin dosage (in words) (zebrafish [2]; in vivo): clear linear correlation was found between increasing cisplatin dosage and decreased rheotaxis performance
rheotaxis index (zebrafish [1]; cisplatin 1000 μM, new image analysis techniques, controls >85%): 45%

Behavioral Assay Rheotaxia Index (%) (Mean ± S.D.) (zebrafish [2]; [3]): 35.6 ± 12.5%
SMILES: C[C@@H]1C[C@H]2[C@@H]3CCC4=CC(=O)C=C[C@]4(C)[C@@]3(F)[C@@H](O)C[C@]2(C)[C@@]1(O)C(=O)CO [Dex, dexamethasone]
damage by dexamethasone-alone treatment, rheotaxis (in words) (zebrafish [2]; Dex 5/Cis 0): No damage was induced
Behavioral Assay Rheotaxia Index (%) (Mean ± S.D.) (zebrafish [2]; [4]): 25.5 ± 5.2%
hair cell damage caused by dexamethasone alone (in words) (lateral line hair cells; Dex 5/Cis 0): no hair cell damage; also recorded: no statistically significant difference between Cis 0 and Dex 5/Cis 0
Anatomical Assay Damage Score (Mean ± S.D.) (lateral line hair cells; [3]): 2.40 ± 0.64
Anatomical Assay Damage Score (Mean ± S.D.) (lateral line hair cells; [4]): 5.20 ± 1.53
